Assay results as given in publication PMC8976278, “Hesperidin identified from Citrus extracts potently inhibits HCV genotype 3a NS3 protease” (BMC Complementary Medicine and Therapies, 2022).
Values after ≈ are worked out from the molar mass of the structure shown. Like-named read-outs stand apart in the source and are kept apart here.

Key:
[1] = biological target: NS3-NS4A protease of HCV genotype-3a (Hepatitis C virus genotype 3a, UniProt Q81258); assay: FRET assay of NS3-NS4A protease activity with depsipeptide substrate; type: biochemical; set-up: Activity, Slope trial 1st / Activity, Slope trial 2nd / Activity, Slope trial 3rd: unit not given here
Chain of NS3-NS4A protease of HCV genotype-3a (Q81258 1033-1213, other chains not shown): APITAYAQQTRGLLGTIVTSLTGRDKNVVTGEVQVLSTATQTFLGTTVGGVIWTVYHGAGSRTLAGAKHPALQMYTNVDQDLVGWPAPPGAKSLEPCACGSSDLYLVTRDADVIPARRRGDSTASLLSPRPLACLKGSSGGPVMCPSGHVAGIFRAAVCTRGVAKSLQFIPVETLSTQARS
Description: For measuring the protease activity, a FRET assay was performed using a depsipeptide substrate, Ac-Asp-Glu-Asp-(EDANS)-Glu-Glu-Abu-ψ-[COO]-Ala-Ser-Lys(DABCYL)-NH2 (AnaSpec,US). The fluorescence signal generated upon cleavage of the depsipeptide substrate by the NS3 protease domain was continuously recorded using excitation and emission wavelengths of 355 nm and 510 nm, respectively, and a fluorescence microplate reader (TECAN, US). In the case of the full-length NS3 protease, the reaction buffer (50 mM HEPES, pH 7.5, 0.4% Triton X-100, 10 mM DTT (Thermo Fisher Scientific), 3% DMSO (Thermo Fisher Scientific), and 40% glycerol) was pre-incubated (at 30 °C for 10 min) with 25 µM of a synthetic peptide, […] (purchased from LifeTein LLC, US), representing the core of the NS4A cofactor required for the catalytic activity. For the FRET assay, 1 nM of the full-length NS3 protease was used. In the case of NS3-NS4A, the protein (0.5 nM) was incubated in the reaction buffer at 30 °C for 10 min (without the synthetic peptide). The reaction was initiated by the addition of the substrate (10 µL) in a two-fold serial dilution up to a concentration of 2 µM. Reaction wells without the substrate were used as negative controls. For correction of the inner filter effect, a previously described procedure was followed. Kinetic parameters (such as kcat, Km, and kcat/Km) were calculated using the Michaelis–Menten equation. Data were fitted to the equation by non-linear regression using the GraphPad Prism® software (version 7.04, GraphPad Prism®, Inc., USA).
For validation of the FRET assay, commercially available inhibitors (asuanaprevir, ciluprevir, danoprevir, and telaprevir (purchased from AdooQ® Bioscience, US) were used to inhibit the activity of the target enzyme (NS3-NS4A protease of HCV genotype-3a), as described previously. Briefly, 1 µM of the depsipeptide substrate was added to the protein, pre-incubated with a given inhibitor, and fluorescence measurements were recorded for 20, 30, or 60 min using 355 nm and 510 nm as excitation and emission wavelengths, respectively. The IC50 value, representing the half-maximal inhibitory concentration, of each commercial inhibitor was calculated using the GraphPad Prism® software (version 7.04, GraphPad Prism®, Inc., USA). The experiment was performed in triplicates, and the average value obtained was considered as the IC50 value.
Reaction mixtures (300 µL) were prepared in the assay buffer (50 mM HEPES, pH 7.5, 0.4% Triton X-100, 10 mM DTT, and 40% glycerol). For initial screening, 3.33 mg of the plant extract was dissolved in 1 mL DMSO, and was transferred to the reaction buffer such that the final concentration of DMSO was 3%. The reaction was initiated by adding 0.5 nM NS3-NS4A protease, and the released RET S1 FRET substrate was monitored using a fluorescence microplate reader (TECAN). Reaction mixtures (also containing 3% DMSO) without any plant extract were used for recording blank measurements. The background fluorescence contributed by the plant extract was also recorded. For calculation of the calibration curve, spiking with known amounts (0.25 µM, 0.5 µM, 1 µM, and 2 µM) of the free FRET substrate (RET S1) was made while keeping the reaction mixture at the same volume, containing all the constituents (the plant extract, the assay buffer as well as the enzyme). Slope of the curve was correlated with that obtained from free FRET substrate concentrations without any plant extract as well as the substrate. Initial reaction rates were calculated, and the percentage (%) enzyme inhibition was calculated using the equation: 100 x [a-b/a] where “a” refers to the fluorescence value generated by the reaction mixture only (without the plant extract) and “b” is the solution fluorescence in the presence of the plant extract. […]

HCV NS3 protease = tested on: HCV NS3 protease; set-up: method as in earlier work; conditions: ref [49], [50]; Table S3 ref [1], [2]; cited from earlier work
[2] = biological target: NS3 protease domain of HCV genotype 3a fused to the cognate NS4A cofactor (NS3-NS4A) (hepatitis C virus genotype 3a)
[3] = FRET assay validation, 1 µM depsipeptide substrate, triplicates, read-out: IC50 value (commercial inhibitors) (converted)

COc1ccc2c(O[C@@H]3C[C@H]4C(=O)N[C@]5(C(=O)O)C[C@H]5/C=C\CCCCC[C@H](NC(=O)OC5CCCC5)C(=O)N4C3)cc(-c3csc(NC(C)C)n3)nc2c1 [Ciluprevir]
IC50 [1, 3]: 53.2 nM

CC(C)(C)OC(=O)N[C@H]1CCCCC/C=C\[C@@H]2C[C@@]2(C(=O)NS(=O)(=O)C2CC2)NC(=O)[C@@H]2C[C@@H](OC(=O)N3Cc4cccc(F)c4C3)CN2C1=O [Danoprevir]
IC50 [1, 3]: 25.1 nM
Activity, Slope trial 1st ([1]; inhibitor conc. 1.3717 nM): 1.677
Activity, Slope trial 2nd ([1]; inhibitor conc. 1.3717 nM): 2.153
Activity, Slope trial 3rd ([1]; inhibitor conc. 1.3717 nM): 9.123
Average Slope ([1]; inhibitor conc. 1.3717 nM): 4.31
Activity, Slope trial 1st ([1]; inhibitor conc. 4.1152 nM): 1.449
Activity, Slope trial 2nd ([1]; inhibitor conc. 4.1152 nM): 1.834
Activity, Slope trial 3rd ([1]; inhibitor conc. 4.1152 nM): 9.072
Average Slope ([1]; inhibitor conc. 4.1152 nM): 4.11
Activity, Slope trial 1st ([1]; inhibitor conc. 12.3456 nM): 0.991
Activity, Slope trial 2nd ([1]; inhibitor conc. 12.3456 nM): 0.979
Activity, Slope trial 3rd ([1]; inhibitor conc. 12.3456 nM): 5.934
Average Slope ([1]; inhibitor conc. 12.3456 nM): 2.63
Activity, Slope trial 1st ([1]; inhibitor conc. 37.037 nM): 0.450
Activity, Slope trial 2nd ([1]; inhibitor conc. 37.037 nM): 0.460
Activity, Slope trial 3rd ([1]; inhibitor conc. 37.037 nM): 2.283
Average Slope ([1]; inhibitor conc. 37.037 nM): 1.06
Activity, Slope trial 1st ([1]; inhibitor conc. 111.1111 nM): 0.196
Activity, Slope trial 2nd ([1]; inhibitor conc. 111.1111 nM): 0.174
Activity, Slope trial 3rd ([1]; inhibitor conc. 111.1111 nM): 0.757
Average Slope ([1]; inhibitor conc. 111.1111 nM): 0.37
Activity, Slope trial 1st ([1]; inhibitor conc. 333.3333 nM): 0
Activity, Slope trial 2nd ([1]; inhibitor conc. 333.3333 nM): 0.039
Activity, Slope trial 3rd ([1]; inhibitor conc. 333.3333 nM): 0.003151
Average Slope ([1]; inhibitor conc. 333.3333 nM): 0.01
Activity, Slope trial 1st ([1]; inhibitor conc. 1000 nM): 0
Activity, Slope trial 2nd ([1]; inhibitor conc. 1000 nM): 0
Activity, Slope trial 3rd ([1]; inhibitor conc. 1000 nM): 0
Average Slope ([1]; inhibitor conc. 1000 nM): 0
IC50 value [reported in the literature] (HCV NS3 protease): 0.0146 µg/mL (≈ 0.0199 µM)

C=C[C@@H]1C[C@]1(NC(=O)[C@@H]1C[C@@H](Oc2ncc(OC)c3ccc(Cl)cc23)CN1C(=O)[C@@H](NC(=O)OC(C)(C)C)C(C)(C)C)C(=O)NS(=O)(=O)C1CC1 [Asunaprevir]
IC50 [1, 3]: 68.3 nM

depsipeptide substrate Ac-Asp-Glu-Asp-(EDANS)-Glu-Glu-Abu-ψ-[COO]-Ala-Ser-Lys(DABCYL)-NH2
Km of cleavage of the depsipeptide substrate by NS3-NS4A (0.5 nM) in the FRET protease assay, Michaelis-Menten fit [2]: 8.79 µM

CCC[C@H](NC(=O)[C@@H]1[C@H]2CCC[C@H]2CN1C(=O)[C@@H](NC(=O)[C@@H](NC(=O)c1cnccn1)C1CCCCC1)C(C)(C)C)C(=O)C(=O)NC1CC1 [Telaprevir]
IC50 [1, 3]: 69.9 nM
Activity, Slope trial 1st ([1]; inhibitor conc. 1.3717 nM): 4.176
Activity, Slope trial 2nd ([1]; inhibitor conc. 1.3717 nM): 2.087
Activity, Slope trial 3rd ([1]; inhibitor conc. 1.3717 nM): 2.395
Average Slope ([1]; inhibitor conc. 1.3717 nM): 2.88
Activity, Slope trial 1st ([1]; inhibitor conc. 4.1152 nM): 4.77
Activity, Slope trial 2nd ([1]; inhibitor conc. 4.1152 nM): 3.604
Activity, Slope trial 3rd ([1]; inhibitor conc. 4.1152 nM): 1.309
Average Slope ([1]; inhibitor conc. 4.1152 nM): 3.22
Activity, Slope trial 1st ([1]; inhibitor conc. 12.3456 nM): 3.041
Activity, Slope trial 2nd ([1]; inhibitor conc. 12.3456 nM): 1.613
Activity, Slope trial 3rd ([1]; inhibitor conc. 12.3456 nM): 2.131
Average Slope ([1]; inhibitor conc. 12.3456 nM): 2.26
Activity, Slope trial 1st ([1]; inhibitor conc. 37.037 nM): 3.796
Activity, Slope trial 2nd ([1]; inhibitor conc. 37.037 nM): 1.828
Activity, Slope trial 3rd ([1]; inhibitor conc. 37.037 nM): 1.004
Average Slope ([1]; inhibitor conc. 37.037 nM): 2.20
Activity, Slope trial 1st ([1]; inhibitor conc. 111.1111 nM): 1.774
Activity, Slope trial 2nd ([1]; inhibitor conc. 111.1111 nM): 1.116
Activity, Slope trial 3rd ([1]; inhibitor conc. 111.1111 nM): 0.627
Average Slope ([1]; inhibitor conc. 111.1111 nM): 1.17
Activity, Slope trial 1st ([1]; inhibitor conc. 333.3333 nM): 0.5776
Activity, Slope trial 2nd ([1]; inhibitor conc. 333.3333 nM): 0.3406
Activity, Slope trial 3rd ([1]; inhibitor conc. 333.3333 nM): 0.163
Average Slope ([1]; inhibitor conc. 333.3333 nM): 0.36
Activity, Slope trial 1st ([1]; inhibitor conc. 1000 nM): 1.246
Activity, Slope trial 2nd ([1]; inhibitor conc. 1000 nM): 0.081
Activity, Slope trial 3rd ([1]; inhibitor conc. 1000 nM): 0
Average Slope ([1]; inhibitor conc. 1000 nM): 0.44
IC50 value [reported in the literature] (HCV NS3 protease): 0.0387 µg/mL (≈ 0.0569 µM)

O=c1oc2c(O)c(O)cc3c(=O)oc4c(O)c(O)cc1c4c23 [Ellagic acid]
IC50 ([1]; commercially obtained pure compound, hesperidin 1230 to 1.67 µg/mL, read-out: IC50 value (pure natural compound) (converted)): 98000 nM
